In patent US20150253330A1, “PRE-SELECTION OF SUBJECTS FOR THERAPEUTIC TREATMENT WITH AN HSP90 INHIBITOR BASED ON HYPOXIC STATUS” (Synta Pharmaceuticals Corp., priority 2012, published 2015):
“Also recorded” adds a separate entry of the source.

Tests used:
[1] = test system: human KRAS mutant NSCLC tumor xenografts; test: KRAS mutant NSCLC tumor xenografts in vivo; design: species or system mice
From the text: Female immunodeficient CD-1 (nude) mice (Charles River Laboratories, Wilmington, Mass.) were maintained in a pathogen-free environment, and all in vivo procedures were approved by the Synta Pharmaceuticals Corp. Institutional Animal Care and Use Committee. A549 NSCLC cells (7.5×10^6) were subcutaneously implanted into the animals. Mice bearing established tumors (100-200 mm^3) were randomized into treatment groups of 8 and i.v. dosed via the tail vein with either vehicle, ganetespib formulated in 10/18 DRD (10% DMSO, 18% Cremophor RH 40, 3.6% dextrose, 68.4% water) or p.o. dosed with BEZ235 formulated in PEG300/NMP (90% PEG300, 10% N-Methylpyrrolidone). Animals were treated with ganetespib at 50 mg/kg weekly or BEZ235 at 10 mg/kg 5 times a week, either alone or in combination. Tumor growth inhibition was determined as described previously. See Proia et al, PLoS One. 2011; 6(4):e18552.

solid tumors = test: Phase 1 trial of ganetespib in combination with docetaxel in solid tumors; assay type: in vivo, human
Method: A trial to evaluate three dose-level combinations of docetaxel and ganetespib, administered on a three-week cycle, with the primary objective of determining an optimal dose for future clinical trials was performed. Docetaxel was administered as a one hour IV infusion on day 1 and ganetespib was administered as a one hour IV infusion on days 1 and 15. The dose level combinations evaluated were 150 mg/m^2 and 60 mg/m^2; 150 mg/m^2 and 75 mg/m^2; and 200 mg/m^2 and 75 mg/m^2 for ganetespib and docetaxel respectively. The standard of care dose level for docetaxel was 75 mg/m^2. A total of 19 patients received at least one dose of study treatment at the cut-off time. The median number of cycles of treatment was 4, with a range of 1 to 11 cycles of treatment. No prophylactic treatment for neutropenia was used. The combination of ganetespib at 150 mg/m^2 and docetaxel at 75 mg/m^2 was selected as the recommended dose.

[2] = test system: AGS (wt-p53 and mut-KRAS); test: 72 hr viability by CTG, gastric cancer cells; assay type: cell-based; conditions: viability by CTG (upper)
Method: (§1) Many of the oncoproteins associated with gastric cancer and Hsp90 client proteins including HER2, MET, RAS and the FGFR family. Ganetespib was evaluated for its effect on the growth of AGS (wt-p53 and mut-KRAS) and MKN45 (wt-p53, wt-KRAS, MET amplified) gastric cancer cells.

[3] = test system: MKN45 (wt-p53, wt-KRAS, MET amplified); test: 72 hr viability by CTG, gastric cancer cells; assay type: cell-based; conditions: Homo sapiens, MKN-45, viability by CTG (upper)
Method: as §1

[4] = test system: HPAC and ASPC-1 xenograft; test: In vivo tumor growth delay and angiogenic assay, pancreatic xenografts; design: species or system SCID mice; conditions: 100 mg/kg IV once a week for three weeks
Method: It's postulated that functional inhibition of Hsp90 by ganetespib can inhibit angiogenesis and growth in vitro and in vivo models of pancreatic cancer. PANC-1 and HPAC cell lines were treated with vehicle or G (50 nM) for 24 h and lysates were analyzed by Western blot. Egg CAM and matrigel plug assays were performed to quantify the effects of ganetespib on angiogenesis. Efficacy of ganetespib (100 mg/kg) was assessed in mice bearing HPAC and ASPC-1 xenograft.
In vivo tumor growth delay and angiogenic assay: Five-week-old SCID mice were divided into 4 groups with 10 animals in each group. First two groups received 100 μl of Ice cold matrigel medium containing ASPC-1 (1×10^6 cells/100 μl) and other two groups received HPAC cell lines subcutaneously. Once the tumor reached 100-120 mm^3, the groups 2 and 4 received ganetespib (100 mg/kg body weight) IV once a week for three weeks. […] Every other day, tumor was measured using vernier caliper scale for a total of five weeks, when the animals were sacrificed. Skin around the implanted matrigel tumor was removed carefully and the tumor with its surrounding was photographed under visible light.

advanced NSCLC = test: Phase 2 clinical trial in NSCLC by KRAS, EGFR and ALK mutation status; assay type: in vivo, human
Method: Patients with advanced NSCLC who failed prior treatments received 200 mg/m^2 of ganetespib as a 1-hr infusion once weekly for 3 of a 4-wk cycle in a Simon two-stage study design assessing primary endpoint of PFS rate at 16 wks. Initial cohorts were defined by mutation status: A) EGFR mutation, KRAS wild-type B) EGFR wild-type, KRAS mutation C) EGFR wild-type, KRAS wild-type (WT). If ≧2/14 patients in A, B or C were progression-free at 16 weeks, enrollment increased to 23 patients for that cohort. Tumor response was assessed every 8 weeks. Cohort D was added to include 35 additional EGFR wild-type and KRAS wild-type patients with adenocarcinoma histology. FISH analysis for ALK translocation, was performed for Cohorts C and D.

[5] = Phase 2 study in solid tumors, twice-weekly infusion (safety, PK, response); assay type: in vivo, human; conditions: human, plasma, intravenous; patients, 1 hr infusion; read-out: Mean terminal half-life
From the text: Patients with solid tumors who had exhausted standard treatment options received ganetespib as a 1 hr infusion twice-weekly for 3 weeks (weeks) of a 28 day cycle until disease progression. Serial PK and pharmacodynamic samples were obtained during cycle 1. Safety assessments included frequency and grade of adverse events (AEs), laboratory parameters and ECG changes.

AGS = test: 72 hr viability by Syto60, gastric cell line; assay type: cell-based; conditions: Homo sapiens, Syto60 (lower), read-out: ganetespib IC50
Method: as §1, with “cells. Cells were treated for 72 hr and viability determined by CTG (upper) or Syto60 (lower).” for “cells.”

MKN-45 = test: 72 hr viability by Syto60, gastric cell line; assay type: cell-based; conditions: Homo sapiens, Syto60 (lower), read-out: ganetespib IC50
Method: as §1, with “cells. Cells were treated for 72 hr and viability determined by CTG (upper) or Syto60 (lower).” for “cells.”

[6] = human pancreatic tumor xenografts
[7] = Cohort C: EGFR wild-type, KRAS wild-type

CC(C)c1cc(-c2nnc(O)n2-c2ccc3c(ccn3C)c2)c(O)cc1O [ganetespib]
Tumor growth inhibition in the combination arm ([1]; ganetespib combined with a PI3K/mTOR inhibitor): considerable improvement in tumor growth inhibition | Growth of KRAS mutant NSCLC tumor xenografts ([1]; single agent): effectively suppressed the growth | Tumor regression ([1]; single agent): did not induce tumor regression | Febrile neutropenia (solid tumors; four patients, ganetespib in combination with docetaxel): 22% | Neutropenia (most common adverse event) (solid tumors; ganetespib in combination with docetaxel): 67% | Recommended dose of ganetespib (solid tumors; in combination with docetaxel at 75 mg/m^2): 150 mg/m^2 | Serious adverse events (solid tumors; nine patients, ganetespib in combination with docetaxel): 50% | Shrinkage of target tumor lesions (solid tumors; one patient with cancer of the parotid gland, ganetespib with docetaxel): over 50% | Effect of ganetespib on docetaxel pharmacokinetics (solid tumors; patients): no effect | Pharmacokinetics of ganetespib alone versus prior to docetaxel (solid tumors; patients): pharmacokinetic similarity | IC50 [2]: 1.5 nM | IC50 [3]: 0.5 nM | Angiogenesis in vivo [4, 6]: inhibition of angiogenesis in vivo; also recorded: decreases angiogenesis | Tumor growth [4, 6]: significant tumor growth delay; also recorded: significantly inhibits tumor growth | Deaths from the treatment ([4]; SCID mice): None of the animals died | Adverse events reported in ≧20% of patients (advanced NSCLC; 200 mg/m^2 once weekly for 3 of a 4-wk cycle, generally grade 1-2): diarrhea, fatigue, nausea, anorexia, constipation, and dyspnea | Objective response rate (CR+PR) (advanced NSCLC; ALK+ patients, 4/8): 50% | Disease control rate (advanced NSCLC; ALK+ patients, 7/8): 88% | Patients with prolonged stable disease (≧16 weeks) (advanced NSCLC; [7]): seven | Response in cohort C (advanced NSCLC; [7]): durable partial response (PR) | ALK+ patients with tumor shrinkage in target lesions (advanced NSCLC; eight ALK+ patients of cohorts C and D (six of eight)): 75% | Tolerability (advanced NSCLC; single agent 200 mg/m^2 once weekly, without severe liver, ocular, cardiovascular or renal toxicity): well-tolerated | half-life [5]: 10 to 14 h | IC50 (AGS): 5 nM | IC50 (MKN-45): 8 nM
